Data reported in patent publication US6221637A, “Xanthene derivatives, their production and use” (Takeda Chemical Industries, Ltd., priority 1996, dated 2001).
≈ marks a conversion by molar mass, not a printed value.

Key:
binding of B7-1 to CD28 = target: T1, binding of B7-1 to CD28 (Homo sapiens, UniProt P10747+P33681); test: Binding inhibition test using soluble B7-1-Ig; conditions: 10 μg/ml soluble B7-1-Ig; fixed CD28-expressing CHO cells; 30 minutes at room temperature; read-out: IC50 (concentration for 50% inhibition of binding) (converted)
T1 construct: ligating the Fc region of human IgG to the C-terminal side of the extracellular region of B7-1; Fc region of human IgG (from plasmid pTB1455); expressed in transfected cells; soluble B7-1-Ig made in house by sB7-1-Ig-CHO-20 and purified from its supernatant
T1 sequence (P10747 19-220): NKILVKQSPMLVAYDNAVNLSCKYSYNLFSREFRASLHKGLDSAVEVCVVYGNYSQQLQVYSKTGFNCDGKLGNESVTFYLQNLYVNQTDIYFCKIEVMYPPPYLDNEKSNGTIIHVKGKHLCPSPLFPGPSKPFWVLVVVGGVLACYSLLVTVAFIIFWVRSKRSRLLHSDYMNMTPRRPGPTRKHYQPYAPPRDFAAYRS
T1 sequence (P33681 with tags, fused parts or gaps): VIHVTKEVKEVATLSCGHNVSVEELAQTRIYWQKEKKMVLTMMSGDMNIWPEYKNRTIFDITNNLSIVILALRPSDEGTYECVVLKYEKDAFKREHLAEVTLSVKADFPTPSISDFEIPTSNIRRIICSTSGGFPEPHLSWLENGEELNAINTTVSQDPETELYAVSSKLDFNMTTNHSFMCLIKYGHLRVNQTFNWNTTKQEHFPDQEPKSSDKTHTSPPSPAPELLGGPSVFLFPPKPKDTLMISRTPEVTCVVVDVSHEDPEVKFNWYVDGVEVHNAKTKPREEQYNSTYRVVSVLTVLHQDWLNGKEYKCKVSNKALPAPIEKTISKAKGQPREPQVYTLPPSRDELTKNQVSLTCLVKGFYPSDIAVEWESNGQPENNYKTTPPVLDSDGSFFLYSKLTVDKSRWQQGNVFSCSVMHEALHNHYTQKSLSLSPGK
Procedure: b) Expression of CD28 in CHO cells
Using petri dishes 10 cm in diameter, 1×10^5 dihydrofolate reductase deficient (DHFR^-) CHO cells were cultured in an αMEM medium containing 10% fetal bovine serum for 24 hours. To these cells, the CD28cDNA expression plasmid pAKKO-CD28as obtained in Reference Example 1 (10 μg) was introduced by the calcium phosphate method. Forty-eight hours later, the medium was replaced with an αMEM medium (no nucleic acid contained) containing 10% dialyzed fetal bovine serum, and cells incorporating the plasmid in their chromosome were selected. For these selected cells, CD28 expression was examined by flow cytometry (EPICS ELITE, COULTER), and cells showing high expression of CD28were obtained. These cells were cloned by the limiting dilution method to obtain CD28-CHO-11, a cell line that stably expresses high amount of CD28. […]
c) Establishment of CHO cells that produce soluble B7-1-Ig
Using petri dishes 10 cm in diameter, 1×10^5 dihydrofolate reductase deficient (DHFR^31 ) CHO cells were cultured in an αMEM medium containing 10% fetal bovine serum for 24 hours. To these cells, 10 μg of the expression plasmid encoding soluble B7-1-Ig as obtained in Reference Example 22 was introduced by the calcium phosphate method. Forty-eight hours later, the medium was replaced with an αMEM medium (no nucleic acid contained) containing 10% dialyzed fetal bovine serum, and cells incorporating the plasmid into their chromosome were selected. For these selected cells, the amount of soluble B7-1-Ig produced in the culture supernatant was measured by EIA, and cells showing high productivity were obtained. These cells were cloned by the limiting dilution method to obtain sB7-1-Ig-CHO-20, a cell line that stably produces soluble B7-1-Ig. […]
d) Preparation of soluble B7-1-Ig
Using petri dishes 15 cm in diameter, the soluble B7-1-Ig-producing CHO cells obtained in term c) above (sB7-1-Ig-CHO-20) were cultured in an αMEM medium containing 10% fetal bovine serum to yield 5 l of culture supernatant. This culture supernatant was crudely purified using a protein G column (Chromatop Superprotein G, […] I.D.×10 cm, NGK Insulators, Ltd.) and further purified by gel filtration chromatography (TSKgel G3000SW, […] I.D.×[…], Tosoh) to yield 20 mg of a purified standard preparation.
Binding inhibition test using soluble B7-1-Ig
The CHO cells that expressed CD28obtained in Example 122 were suspended in an αMEM medium (no nucleic acid contained) containing 10% dialyzed fetal bovine serum, seeded into 96-well microplates (flat bottom) to 3×10^4 cells/well, and cultured in the presence of 5% CO2 at 37° C. for 48 hours. The culture supernatant was removed by aspiration from each plate to which cells adhered, followed by the addition of phosphate buffer saline (PBS) containing 0.5% paraformaldehyde to fix the cells. After this plate was washed twice with PBS containing 10% Block Ace (Snow Brand Milk Products), 10 μg/ml soluble B7-1-Ig and a sample were added to each well. Binding reaction was carried out by keeping the plate standing at room temperature for 30 minutes. After the reaction, the plate was washed twice with PBS containing 10% Block Ace (Snow Brand Milk Products), followed by the addition of peroxidase-labeledanti-human IgG (Cappel) and 2 hours of reaction. The plate was further washed twice with PBS containing 10% Block Ace (Snow Brand Milk Products), after which 100 μl of a 0.1M citrate buffer containing 6.5 mg/ml ortho-phenylenediamine dihydrochloride (Wako Pure Chemical Industries) and 0.06% hydrogen peroxide was added to each well. Twenty minutes later, the coloring reaction was stopped with 2N sulfuric acid, and the absorbance at 492 nm was determined using a plate reader (BIO-RAD Model 1450).

mice = test: Toxicity test; type: in vivo; conditions: intraperitoneally, 400 mg/kg
[1] = system: interleukin 2 (IL-2) production by human peripheral blood T cells; test: Inhibition test for interleukin 2 (IL-2) production by human peripheral blood T cells; type: cell-based; conditions: anti-CD3 antibody coated plates; CHO cells expressing B7-1; 48 hours, 37° C.; read-out: IC50 value (concentration for 50% suppression of interleukin-2 production)
Procedure: a) Expression of B7-1 in CHO cells
Using petri dishes 10 cm in diameter, 1×10^5 Chinese hamster ovary (CHO) cells were cultured in an αMEM medium containing 10% fetal bovine serum for 24 hours. To these cells, the B7-1 cDNA expression plasmid pME-B7-1 as obtained in Reference Example 1 (10 μg) and the neomycin resistance expression plasmid pME-neo (1 μg) were introduced by the calcium phosphate method. Forty-eight hours later, GENETICIN (G418 sulfate, GIBCO) was added to a final concentration of 0.5 mg/ml, and cells that acquired neomycin resistance were selected. For these selected cells, B7-1 expression was examined by flow cytometry (EPICS ELITE, COULTER), and cells showing high expression of B7-1 were obtained. These cells were cloned by the limiting dilution method to obtain B7-1-CHO-22, a cell line that stably expresses high amount of B7-1.
Inhibition test for interleukin 2 (IL-2) production by human peripheral blood T cells
Blood was collected from a healthy normal human, overlaid on lymphocyte separation medium (LSM, Organon Teknica Co.), and centrifuged at room temperature at 2,000 rpm for 20 minutes to obtain human peripheral blood mononuclear cells. […] The IL-2 produced in the culture supernatant was quantified using the HUMAN INTERLEUKIN-2 EIA KIT (Cayman Chemical Co.).

IC50 (binding of B7-1 to CD28) [nM]	Compound	deaths after intraperitoneal administration (mice)	IC50 [1] [µg/mL]
< 210	COC(=O)c1c([S+]([O-])CC(=O)O)c(O)cc2oc3c(Cl)c(C)c(Cl)c(O)c3c(=O)c12 (centres unmarked) [Compound 17, methyl 2-(carboxymethylsulfinyl)-5,7-dichloro-3,8-dihydroxy-6-methyl-9-oxo-9H-xanthene-1-carboxylate]		
< 194	CCC(=O)Oc1c(Cl)c(C)c(Cl)c2oc3cc(O)c(SCC(=O)O)c(C(=O)OC)c3c(=O)c12 [Compound 27]		
171	COC(=O)c1c(SCC(=O)O)c(O)c(I)c2oc3c(Cl)c(C)c(Cl)c(O)c3c(=O)c12 [Compound 40]		
< 166	COC(=O)c1c([S+]([O-])CC(=O)O)c(O)c(I)c2oc3c(Cl)c(C)c(Cl)c(O)c3c(=O)c12 (centres unmarked) [Compound 54, methyl 2-(carboxymethylsulfinyl)-5,7-dichloro-3,8-dihydroxy-4-iodo-6-methyl-9-oxo-9H-xanthene-1-carboxylate]		
238	COC(=O)c1c(SCC(=O)O)c(O)c([N+](=O)[O-])c2oc3c(Cl)c(C)c(Cl)c(O)c3c(=O)c12 [Compound 132]		

Compound	IC50 (binding of B7-1 to CD28) [nM]	deaths after intraperitoneal administration (mice)	IC50 [1] [µg/mL]
COC(=O)c1c(SCC(=O)O)c(O)cc2oc3c(Cl)c(C)c(Cl)c(O)c3c(=O)c12 [Compound 1]	305	no animals died	10 (≈ 21.8 µM)
